What was measured:
[1] = Half life in mouse plasma at 1 uM; type: ADME, cell-free
[2] = molecular target: T1, Protein-glutamine gamma-glutamyltransferase (Homo sapiens, UniProt P21980); assay: Inhibition of human TGM2
T1 sequence (P21980 whole entry): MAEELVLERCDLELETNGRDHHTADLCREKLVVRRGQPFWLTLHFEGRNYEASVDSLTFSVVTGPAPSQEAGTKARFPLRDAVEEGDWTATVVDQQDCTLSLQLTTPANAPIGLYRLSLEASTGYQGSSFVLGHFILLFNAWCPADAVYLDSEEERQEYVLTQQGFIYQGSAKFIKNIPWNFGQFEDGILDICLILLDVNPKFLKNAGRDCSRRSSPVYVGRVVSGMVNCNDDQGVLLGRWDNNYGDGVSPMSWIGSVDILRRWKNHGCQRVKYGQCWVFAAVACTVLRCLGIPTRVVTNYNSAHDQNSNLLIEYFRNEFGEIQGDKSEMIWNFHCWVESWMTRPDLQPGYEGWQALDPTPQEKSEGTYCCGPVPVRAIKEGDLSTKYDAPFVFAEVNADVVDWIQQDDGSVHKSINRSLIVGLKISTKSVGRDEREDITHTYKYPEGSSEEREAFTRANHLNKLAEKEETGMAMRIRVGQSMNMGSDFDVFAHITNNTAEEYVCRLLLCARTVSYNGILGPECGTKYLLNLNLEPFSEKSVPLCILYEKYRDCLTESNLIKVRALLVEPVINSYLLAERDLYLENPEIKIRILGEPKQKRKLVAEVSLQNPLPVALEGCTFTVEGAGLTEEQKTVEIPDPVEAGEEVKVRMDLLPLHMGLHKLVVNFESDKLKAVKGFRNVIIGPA

[3] = Half life in human plasma at 1 uM; type: ADME, cell-free
[4] = Chemical stability of the compound in phosphate buffer at pH 7.4 assessed as GSH adduct formation after 120 hrs; type: physicochemical; details: pH 7.4, 120 h

Structure (SMILES) | half-life at 1 µM [1] [h] | IC50 [2] [nM] | half-life at 1 µM [3] [h] | Stability [4]
Nc1ccc(S(=O)(=O)N2CCN(C(=O)C3CC3)CC2)cc1 | > 24 | > 80000 | > 6 | 
C=CC(=O)NC1CCN(S(=O)(=O)c2ccc(C(=O)NCCc3ccc4cccnc4c3)cc2)CC1 | > 6 | 310 | > 6 | 
C=CC(=O)NC1CCN(S(=O)(=O)c2ccc(C(=O)NCCc3ccc(Cl)cc3)cc2)CC1 | > 6 | 280 | > 6 | 
C=CC(=O)NC1CCN(S(=O)(=O)c2ccc(C(=O)NCCc3cccc(Cl)c3)cc2)CC1 | > 6 | 170 | > 6 | Stable
C=CC(=O)NCC1CCN(S(=O)(=O)c2ccc(NC(=O)OCc3ccccc3)cc2)CC1 | > 6 | 5100 | > 6 | 
C=CC(=O)NC1CCN(S(=O)(=O)c2ccc(C(=O)NCCN3CCOCC3)cc2)CC1 | > 6 | 380 | > 6 | 
C=CC(=O)NC1CCN(S(=O)(=O)c2ccc(C(=O)NCCc3ccc(C(F)(F)F)cc3)cc2)CC1 | > 6 | 550 | > 6 | 
C=CC(=O)NC1CCN(S(=O)(=O)c2ccc(C(=O)NCCC3CCOCC3)cc2)CC1 | > 6 | 360 | > 6 | 
C=CC(=O)NC1CCN(S(=O)(=O)c2ccc(C(=O)NCCc3ccc4ccccc4c3)cc2)CC1 | > 6 | 280 | > 6 | 
C=CC(=O)NC1CCN(S(=O)(=O)c2ccc(C(=O)N[C@@H]3C[C@H]3c3ccccc3)cc2)CC1 (racemic) | > 6 | 410 | > 6 | 
C=CC(=O)NC1CCN(S(=O)(=O)c2ccc(C(=O)NCCc3ccc(OC)c(OC)c3)cc2)CC1 | > 6 | 460 | > 6 | 
C=CC(=O)N[C@@H]1CCN(S(=O)(=O)c2ccc(NC(=O)OCc3ccccc3)cc2)C1 | > 6 | 30000 | > 6 | 
C=CC(=O)NC1CCN(S(=O)(=O)c2ccc(C(=O)NCc3cccc4ccccc34)cc2)CC1 | > 6 | 170 | > 6 | 
C=CC(=O)N[C@H]1CCCN(S(=O)(=O)c2ccc(NC(=O)OCc3ccccc3)cc2)C1 | > 6 | > 80000 | > 6 | 
C=CC(=O)NC1CCN(S(=O)(=O)c2ccc(C(=O)NCCc3ccc(C(C)(C)C)cc3)cc2)CC1 | > 6 | 22000 | > 6 | 
C=CC(=O)NC1CCN(S(=O)(=O)c2ccc(C(=O)NCCc3ccc(-c4ccccc4)cc3)cc2)CC1 | > 6 | 57000 | > 6 | 
C=CC(=O)NC1CCN(S(=O)(=O)c2ccc(C(=O)NCc3ccccc3)cc2)CC1 | > 6 | 200 | > 6 | 
C=CC(=O)NC1CCN(S(=O)(=O)c2ccc(C(=O)NCCC3CCCCC3)cc2)CC1 | > 6 | 140 | > 6 | 

Structure (SMILES) | half-life at 1 µM [1] [h] | IC50 [2] [nM] | half-life at 1 µM [3] [h] | Stability [4]
C=CC(=O)NC1CCN(S(=O)(=O)c2ccc(C(=O)N(C)CCc3ccccc3)cc2)CC1 | > 6 | 460 | > 6 | 
C=CC(=O)NC1CCN(S(=O)(=O)c2ccc(C(=O)N(C)Cc3ccccc3)cc2)CC1 | > 6 | 630 | > 6 | 
C=CC(=O)NC1CN(S(=O)(=O)c2ccc(NC(=O)OCc3ccccc3)cc2)C1 | > 6 | 1600 | > 6 | 
C=CC(=O)NC1CCN(S(=O)(=O)c2ccc(C(=O)NCCC34CC5CC(CC(C5)C3)C4)cc2)CC1 | > 6 | 660 | > 6 | 
C=CC(=O)N[C@H]1CCN(S(=O)(=O)c2ccc(NC(=O)OCc3ccccc3)cc2)C1 | > 6 | 55000 | > 6 | 
C=CC(=O)NCCN(C)S(=O)(=O)c1ccc(NC(=O)OCc2ccccc2)cc1 | > 6 | 3300 | > 6 | 
C=CC(=O)NC1CCN(S(=O)(=O)c2ccc(C(=O)NCCc3ccc(C)c(C)c3)cc2)CC1 | > 6 | 180 | > 6 | 
C=CC(=O)NC1CCN(S(=O)(=O)c2ccc(C(=O)NCCc3cccc4c3OCO4)cc2)CC1 | > 6 | 280 | > 6 | 
C=CC(=O)N1CCN(S(=O)(=O)c2ccc(NC(=O)OCc3ccccc3)cc2)CC1 | > 6 |  | > 6 | 
C=CC(=O)NC1CCN(S(=O)(=O)c2ccc(C(=O)NC3CCCc4ccccc43)cc2)CC1 (stereo not drawn) | > 6 | 320 | > 6 | 
C=CC(=O)NC1CCN(C(=O)c2ccc(NC(=O)OCc3ccccc3)cc2)CC1 | > 6 | 8900 | > 6 | 
C=CC(=O)NC1CCN(S(=O)(=O)c2ccc(C(=O)NCCCc3ccccc3)cc2)CC1 | > 6 | 770 | > 6 | 
C=CC(=O)NC1CCN(S(=O)(=O)c2ccc(C(=O)NCCc3cccc4c3OCC4)cc2)CC1 | > 6 | 260 | > 6 | 
C=CC(=O)N[C@@H]1CCCN(S(=O)(=O)c2ccc(NC(=O)OCc3ccccc3)cc2)C1 | > 6 | > 80000 | > 6 | 
C=CC(=O)NC1CCN(S(=O)(=O)c2ccc(C(=O)N3CCc4ccccc4C3)cc2)CC1 | > 6 | 620 | > 6 | 
C=CC(=O)NC1CCN(Cc2ccc(NC(=O)OCc3ccccc3)cc2)CC1 | > 6 | 1600 | > 6 | 
C=CC(=O)NC1CCN(S(=O)(=O)c2ccc(C(=O)NCCc3ccccc3OC)cc2)CC1 | > 6 | 230 | > 6 | 
C=CC(=O)NC1CCN(S(=O)(=O)c2ccc(C(=O)NC3Cc4ccccc4C3)cc2)CC1 | > 6 | 200 | > 6 | 

Source: ChEMBL document CHEMBL2150866, “Irreversible 4-Aminopiperidine Transglutaminase 2 Inhibitors for Huntington's Disease” (ACS Med Chem Lett, 2012)
